# Columns and labels:
# [1] = system: mouse colon cancer Colon 26 cells; assay: Life-prolonging activity test in mice bearing Colon 26 cells; format: in vivo; conditions: for Life-prolongation (in words): Example 7, animals of Examples 3 and 4, present tense, no data; for Life-prolonging Index (%): (St/Sc−1)×100
# Method: Observation of the mice used in Example 1 above was continued. The life-prolonging index was determined, based on the number of days each mouse survived, and this value was then used as an indicator of the life-prolonging effects of the test compounds.
# It should be noted that, in the case of the group of mice treated with a test compound, oral administration of the respective compound once daily was continued on day 20 after tumor cell transplantation and beyond as well. Life-prolonging index (%)=(St/Sc−1)×100 • St: Median value of survival time (days) of the group of mice treated with a test compound • Sc: Median value of survival time (days) of the control group which were […].
# The experiment reported in Example 5 was repeated with the animals used in Example 2. In the case of the group of mice treated with a test compound, oral administration of the respective compound once daily was continued on day 23 after tumor cell transplantation and beyond as well.
# The experiment reported in Example 5 is repeated with the animals used in Examples 3 and 4.
# [2] = system: mouse colon cancer Colon 26 cells; assay: Test of anticachexia effects in mice bearing mouse colon cancer Colon 26 cells; format: in vivo; conditions: for Inhibition of mouse tumor cachexia and recovery of body weight loss (in words): Example 4, written in present tense, no data; for Body Weight Recovery Rate (%): day 19, (Δgt−Δgc1)/(Δgc2−Δgc1)×100; for Weight Gain (Δg): day 19 after tumor cell transplantation, female CDF1 mice 8 weeks old; for Average Weight Gain (Δg): 22 days after tumor transplantation, female CDF1 mice 16 weeks old, control −4.2
# Description: The test animals were CDF1 mice (females, 8 weeks old). They were employed in groups of 10 for each test. 1×10^6 mouse colon cancer Colon 26 cells were transplanted subcutaneously into each animal.
# The test compounds were Compounds No. 1-94 and 2-78 as shown above in Tables 1 and 2, respectively, and having the following formulae: […]
# Each test compound was suspended in sterilized distilled water containing 0.5% w/v carboxymethyl cellulose (CMC) and administered orally once per day starting on the day of the tumor cell transplantation.
# Each test animal was weighed immediately after tumor cell transplantation, and the weight (A g) was recorded. Each animal was then weighed on day 19 after tumor cell transplantation, and the weight (B g) was recorded. The weight gain on day 19 after tumor cell transplantation was calculated as B−A=Δgt for the test animals. The experiment was repeated with two control groups: the first control group (control group 1) was transplanted with the tumor cells but were not treated with any test compound, and the weight gain is reported as Δgc1; the second control group (control group 2) were not transplanted with the tumor cells and were not treated with any test compound, and the weight gain is reported as Δgc2. The body weight recovery rate was determined according to the following formula based on the weight gain on day 19 after tumor cell transplantation, and this value was used as an indicator of the anticachexia effect. Body weight recovery rate (%)=(Δgt−Δgc1)/(Δgc2−Δgc1)×100
# (§1) The procedure described in Example 1 was repeated, but using the compound of formula (III) as the test compound, and comparing the weight gain (Δgt) of the test group of animals to which the compound of formula (III) had been administered with a control group (Δgc) into which the tumor cells had been transplanted but to which no anti-tumor compound had been administered. The test animals were female CDF1 mice, 16 weeks old. Also, the weight gain was measured 22 days after tumor transplantation. The average body weight of each group of animals immediately after tumor transplantation was 25 to 26 g.
# as §1, with “Example 2” for “Example 1”, “formula (IV)” for “formula (III)”, “mice, 7” for “mice, 16”, “measured 15” for “measured 22”, “was 20” for “was 25”, “to 21” for “to 26”
# Test compounds [the compounds of formula (V), (VI), (VII), (VIII), (IX), (X), (XI), (XII), (XIII) and (XIV)] are administered in the same manner as described in Example 2.
# [3] = 1 mg/kg oral once daily, mice of Example 1
# [4] = 1 mg/kg oral once daily, mice of Example 1, untreated 29.0
# [5] = 3 mg/kg oral once daily, mice of Example 1
# [6] = 3 mg/kg oral once daily, mice of Example 1, untreated 29.0
# [7] = 10 mg/kg oral once daily, mice of Example 1
# [8] = 10 mg/kg oral once daily, mice of Example 1, untreated 29.0
smiles,measurement,setting,value
"CS(=O)(=O)c1ccc(C2=C(c3cc(F)cc(F)c3)C(=O)CC2)cc1 [(XIII), 2-(3,5-difluorophenyl)-3-(4-methanesulfonylphenyl)-2-cyclopenten-1-one]",Life-prolongation (in words),[1],exhibit pronounced life-prolongation
same,Inhibition of mouse tumor cachexia and recovery of body weight loss (in words),[2],inhibit mouse tumor cachexia and recover loss of average of body weight
"Cc1nc(C2CCCCC2)c(-c2ccc(S(N)(=O)=O)c(F)c2)o1 [(VIII), 4-(4-cyclohexyl-2-methyloxazol-5-yl)-2-fluorobenzenesulfonamide]",Life-prolongation (in words),[1],exhibit pronounced life-prolongation
same,Inhibition of mouse tumor cachexia and recovery of body weight loss (in words),[2],inhibit mouse tumor cachexia and recover loss of average of body weight
CCOc1ccc(-c2cc(C)cn2-c2ccc(S(N)(=O)=O)cc2)cc1 [Compound 2-78],Life-prolonging Index (%),[1]; [3],55%
same,Survival Period (median: days),[1]; [4],45.0 days
same,Life-prolonging Index (%),[1]; [5],74%
same,Survival Period (median: days),[1]; [6],50.5 days
same,Life-prolonging Index (%),[1]; [7],67%
same,Survival Period (median: days),[1]; [8],48.5 days
same,Body Weight Recovery Rate (%),[2]; 1 mg/kg oral once per day,85%
same,Weight Gain (Δg),[2]; 1 mg/kg oral once per day,2.5 g
same,Body Weight Recovery Rate (%),[2]; 3 mg/kg oral once per day,85%
same,Weight Gain (Δg),[2]; 3 mg/kg oral once per day,2.5 g
same,Body Weight Recovery Rate (%),[2]; 10 mg/kg oral once per day,88%
same,Weight Gain (Δg),[2]; 10 mg/kg oral once per day,2.6 g
"CS(=O)(=O)c1ccc(C2=C(c3ccccc3)C(=O)OC2)cc1 [(XII), 3-phenyl-4-(4-methanesulfonylphenyl)-5H-furan-2-one]",Life-prolongation (in words),[1],exhibit pronounced life-prolongation
same,Inhibition of mouse tumor cachexia and recovery of body weight loss (in words),[2],inhibit mouse tumor cachexia and recover loss of average of body weight
"CCN1CC/C(=C\c2cc(C(C)(C)C)c(O)c(C(C)(C)C)c2)S1(=O)=O [(X), (E)-2-ethyl-5-(3,5-di-t-butyl-4-hydroxy)benzylidene-1,2-isothiazolidine-1,1-dioxide]",Life-prolongation (in words),[1],exhibit pronounced life-prolongation
same,Inhibition of mouse tumor cachexia and recovery of body weight loss (in words),[2],inhibit mouse tumor cachexia and recover loss of average of body weight
"CSc1ccc(-n2cc(C)cc2-c2ccc(S(N)(=O)=O)cc2)cc1 [Compound 1-94, 4-methyl-1-(4-methylthiophenyl)-2-(4-sulfamoylphenyl)pyrrole]",Life-prolonging Index (%),[1]; [3],67%
same,Survival Period (median: days),[1]; [4],48.5 days
same,Life-prolonging Index (%),[1]; [5],21%
same,Survival Period (median: days),[1]; [6],35.0 days
same,Life-prolonging Index (%),[1]; [7],55%
same,Survival Period (median: days),[1]; [8],45.0 days
same,Body Weight Recovery Rate (%),[2]; 1 mg/kg oral once per day,78%
same,Weight Gain (Δg),[2]; 1 mg/kg oral once per day,2.2 g
same,Body Weight Recovery Rate (%),[2]; 3 mg/kg oral once per day,89%
same,Weight Gain (Δg),[2]; 3 mg/kg oral once per day,2.7 g
same,Body Weight Recovery Rate (%),[2]; 10 mg/kg oral once per day,98%
same,Weight Gain (Δg),[2]; 10 mg/kg oral once per day,3.1 g
"CS(=O)(=O)Nc1cc2occ(NC=O)c(=O)c2cc1Oc1ccccc1 [(IX), N-(3-formylamino-4-oxo-6-phenoxy-4H-1-benzopyran-7-yl)methanesulfonamide]",Life-prolongation (in words),[1],exhibit pronounced life-prolongation
same,Inhibition of mouse tumor cachexia and recovery of body weight loss (in words),[2],inhibit mouse tumor cachexia and recover loss of average of body weight
"Cc1cnc(NC(=O)C2=C(O)c3ccccc3S(=O)(=O)N2C)s1 [(VI), 4-hydroxy-2-methyl-N-(5-methylthiazol-2-yl)-2H-1,2-benzothiazine-3-carboxamide-1,1-dioxide]",Life-prolongation (in words),[1],exhibit pronounced life-prolongation
same,Inhibition of mouse tumor cachexia and recovery of body weight loss (in words),[2],inhibit mouse tumor cachexia and recover loss of average of body weight
"CS(=O)(=O)c1ccc(C2=C(c3ccc(F)cc3)CCC2)cc1 [(XI), 1-(4-methanesulfonylphenyl)-2-(4-fluorophenyl)cyclopentene]",Life-prolongation (in words),[1],exhibit pronounced life-prolongation
same,Inhibition of mouse tumor cachexia and recovery of body weight loss (in words),[2],inhibit mouse tumor cachexia and recover loss of average of body weight
"CS(=O)(=O)Nc1ccc([N+](=O)[O-])cc1Oc1ccccc1 [(VII), N-(4-Nitro-2-phenoxyphenyl)methanesulfonamide]",Life-prolongation (in words),[1],exhibit pronounced life-prolongation
same,Inhibition of mouse tumor cachexia and recovery of body weight loss (in words),[2],inhibit mouse tumor cachexia and recover loss of average of body weight
"CS(=O)(=O)c1ccc(C2=C(c3ccc(F)c(F)c3)C(=O)OC2)cc1 [Compound (III), 3-(3,4-difluorophenyl)-4-(4-methanesulfonylphenyl)-5H-furan-2-one]",Survival Period (median: days),"[1]; 1 mg/kg oral once daily, mice of Example 2 (16 weeks old), untreated 23.0",40.5 days
same,Life-prolonging Index (%),"[1]; 1 mg/kg oral once daily, mice of Example 2",76%
same,Survival Period (median: days),"[1]; 3 mg/kg oral once daily, mice of Example 2 (16 weeks old), untreated 23.0",37.5 days
same,Life-prolonging Index (%),"[1]; 3 mg/kg oral once daily, mice of Example 2",63%
same,Survival Period (median: days),"[1]; 10 mg/kg oral once daily, mice of Example 2 (16 weeks old), untreated 23.0",43.5 days
same,Life-prolonging Index (%),"[1]; 10 mg/kg oral once daily, mice of Example 2",91%
same,Average Weight Gain (Δg),[2]; 1 mg/kg oral once per day,0.0 g
same,Average Weight Gain (Δg),[2]; 3 mg/kg oral once per day,0.3 g
same,Average Weight Gain (Δg),[2]; 10 mg/kg oral once per day,0.9 g
same,Inhibition of mouse tumor cachexia and weight loss (in words),"[2]; Examples 1-3, 1-10 mg/kg oral",inhibited mouse tumor cachexia and reduced weight loss
"Cc1onc(-c2ccccc2)c1-c1ccc(S(N)(=O)=O)cc1 [(XIV), 4-[5-methyl-3-phenylisoxazol-4-yl)benzenesulfonamide]",Life-prolongation (in words),[1],exhibit pronounced life-prolongation
same,Inhibition of mouse tumor cachexia and recovery of body weight loss (in words),[2],inhibit mouse tumor cachexia and recover loss of average of body weight

# From US7745481B2, “Methods and compositions for the treatment and prevention of tumors, tumor-related disorders and cachexia” (Daiichi Sankyo Company, Limited, priority 1997, dated 2010)
